Experimental findings from patent US20260078130A1, “NAMPT MODULATORS, PREPARATIONS, AND USES THEREOF” (SIRONAX LTD., priority 2022, published 2026) are described below.

In the assay the target is T1, human enzyme NAMPT (full length) (Homo sapiens, UniProt P43490).
T1 construct: human enzyme NAMPT (full length)
As to the kind of experiment: NMN fluorescence biochemical assay (stimulation of NMN synthesis by NAMPT). The note with it: for pEC50: concentration giving half-maximal activation, read-out: Enzymatic EC50; for Enzymatic Emax: fold change of maximal activation compared to DMSO. The protocol: Certain compounds described herein were assayed for their ability to stimulate the synthesis of nicotinamide mononucleotide (NMN) by human enzyme NAMPT (full length). The enzymatic assay was performed in a 384-well plate using a TMD buffer (50 mM Tris-HCl, 10 mM MgCl2, 2 mM DTT, pH 7.5). Purified NAMPT (100 nM) was pre-incubated with 0.2 μL. DMSO solution of the test compound (with a series of concentrations) in 10 μL TMD buffer for 15 min at 37° C. The reaction was initiated by adding 10 μL solution of NAM (50 μM), PRPP (100 μM), and ATP (4 mM) in TMD buffer. After 1 h of incubation at 37 T, an aliquot (20 μL) of the NMN-containing sample was sequentially mixed with 5 μL of 20% acetophenone (in DMSO) and 5 μL of 2M KOH. The mixture was placed on ice for 10 min. Next, 22.5 μL of 100% formic acid was added to each sample, vortexed, and then incubated at 37° C. for 20 min. Fluorescence (Ex/Em=382/445 nm) was measured using an Envision plate reader. The potency measurements for the test compounds were quantified and represented as EC50 (concentration of a compound that gives half-maximal activation) and Emax (fold change of a compound's maximal activation compared to DMSO).

The mark [1] stands for this setting: NMN fluorescence assay, purified human NAMPT 100 nM.
[2] abbreviates: NMN synthesis by purified human NAMPT (100 nM).

Structures are written as SMILES. pEC50: −log10 of the molar value. Where two headings read alike, the source gives them in different places. A value given as a limit tells only on which side of the number the result lay.

T1 sequence (P43490 whole entry): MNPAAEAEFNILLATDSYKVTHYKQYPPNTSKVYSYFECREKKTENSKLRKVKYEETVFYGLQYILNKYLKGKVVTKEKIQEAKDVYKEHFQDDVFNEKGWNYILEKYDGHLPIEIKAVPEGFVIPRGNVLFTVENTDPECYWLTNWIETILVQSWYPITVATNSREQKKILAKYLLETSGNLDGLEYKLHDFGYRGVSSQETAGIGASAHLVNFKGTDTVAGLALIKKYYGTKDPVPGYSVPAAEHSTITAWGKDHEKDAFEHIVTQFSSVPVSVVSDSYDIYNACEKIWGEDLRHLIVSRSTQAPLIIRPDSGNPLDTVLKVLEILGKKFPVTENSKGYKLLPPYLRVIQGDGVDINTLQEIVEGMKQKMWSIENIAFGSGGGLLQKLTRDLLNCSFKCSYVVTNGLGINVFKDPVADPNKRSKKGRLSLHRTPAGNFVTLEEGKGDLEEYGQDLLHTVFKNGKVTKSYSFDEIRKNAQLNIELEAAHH

What is called pEC50 is −log10 of the EC50, conventionally taken in molar units. For `Cn1ncc(Cl)c1CC1c2ccccc2C(=O)N1CC1CC(=O)C1` (centres unmarked) [Compound 556, 3-((4-chloro-1-methyl-1H-pyrazol-5-yl)methyl)-2-((3-oxocyclobutyl)methyl)isoindolin-1-one], the “Enzymatic Emax” value was “B (3≥B>2)”. Further, the pEC50 under setting [1] was not above 5.30.

In the case of `O=C1c2ccccc2CCN1Cc1ccc2[nH]c(=O)oc2c1` [Compound 8, 6-((1-oxo-3,4-dihydroisoquinolin-2(1H)-yl)methyl)benzo[d]oxazol-2(3H)-one], the “Enzymatic Emax” value is listed as “B (3≥B>2)”. Also, the pEC50 under setting [2] is not above 5.30.

Take `Cc1nc2cc(CN3C(=O)c4ccccc4C3Cc3ncccc3Br)ccc2[nH]1` (centres unmarked) [Compound 358, 3-((3-bromopyridin-2-yl)methyl)-2-((2-methyl-1H-benzo[d]imidazol-5-yl)methyl)isoindolin-1-one]: the “Enzymatic Emax” value is recorded as “A (A>3)”. The negative logarithm of the EC50 (pEC50) under setting [1] is 5.30 to 6.30.

For `Cc1ccc2c(c1)C(=O)N(Cc1ccc(O)cc1)C2` [Compound 32, 2-(4-hydroxybenzyl)-6-methylisoindolin-1-one], the “Enzymatic Emax” value was “A (A>3)”. Further, the negative logarithm of the EC50 (pEC50) under setting [2] was not above 5.30.

As to `Cn1ncc(Cl)c1CC1c2cccc(CC#N)c2C(=O)N1CC1CC2(CNC(=O)O2)C1` (centres unmarked) [Compound 432, 2-(1-((4-chloro-1-methyl-1H-pyrazol-5-yl)methyl)-3-oxo-2-((6-oxo-5-oxa-7-azaspiro[3.4]octan-2-yl)methyl)isoindolin-4-yl)acetonitrile], the “Enzymatic Emax” value is “B (3≥B>2)”. Further, the negative logarithm of the EC50 (pEC50) under setting [1] is not above 5.30.

In the case of `COc1nc2cc(CN3C(=O)c4ccccc4C3Cc3ncccc3Br)ccc2[nH]1` (centres unmarked) [Compound 254, 3-((3-bromopyridin-2-yl)methyl)-2-((2-methoxy-1H-benzo[d]imidazol-5-yl)methyl) isoindolin-1-one], the “Enzymatic Emax” value is on record as “B (3≥B>2)”. The negative logarithm of the EC50 (pEC50) under setting [2] was 5.30 to 6.30.

On to `Cn1ncc(Cl)c1CC1c2ccccc2C(=O)N1Cc1ccccc1` (centres unmarked) [Compound 502, 2-benzyl-3-((4-chloro-1-methyl-1H-pyrazol-5-yl)methyl)isoindolin-1-one], for which the “Enzymatic Emax” value is on record as “C (2≥C)”. For the same compound, the negative-log EC50 (pEC50) under setting [1] was not above 5.30.

For `COc1ccc(CC2c3ccccc3C(=O)N2Cc2ccc3[nH]c(=O)oc3c2)cc1` (centres unmarked) [Compound 213, 6-((1-(4-methoxybenzyl)-3-oxoisoindolin-2-yl)methyl)benzo[d]oxazol-2(3H)-one], the “Enzymatic Emax” value is recorded as “A (A>3)”. Also, under setting [2], the pEC50 was 5.30 to 6.30.

As for `Nn1c(=O)oc2cc(CN3C(=O)c4ccccc4C3Cc3ncccc3Br)ccc21` (centres unmarked) [Compound 256, 3-Amino-6-((1-((3-bromopyridin-2-yl)methyl)-3-oxoisoindolin-2-yl)methyl)benzo[d]oxazol-2(3H)-one], the “Enzymatic Emax” value is given as “A (A>3)”. Further, the pEC50 under setting [2] is not above 5.30.

In the case of `O=C1c2ccccc2C(Cc2ccc(Br)cn2)N1Cc1ccc2[nH]c(=O)oc2c1` (centres unmarked) [Compound 262, 6-((1-((5-bromopyridin-2-yl)methyl)-3-oxoisoindolin-2-yl)methyl)benzo[d]oxazol-2(3H)-one], the “Enzymatic Emax” value is on record as “A (A>3)”. Further, the pEC50 under setting [2] is 5.30 to 6.30.

Consider `Cn1ncc(Cl)c1CC1c2ccccc2C(=O)N1Cc1ccc(F)cc1` (centres unmarked) [Compound 572, 3-((4-chloro-1-methyl-1H-pyrazol-5-yl)methyl)-2-(4-fluorobenzyl)isoindolin-1-one], for which the “Enzymatic Emax” value is listed as “C (2≥C)”. For the same compound, the pEC50 under setting [1] is not above 5.30.

As to `Cn1ncc(Cl)c1CC1c2ccccc2C(=O)N1CC1CC2(COC2)C1` (centres unmarked) [Compound 564, 2-((2-oxaspiro[3.3]heptan-6-yl)methyl)-3-((4-chloro-1-methyl-1H-pyrazol-5-yl)methyl)isoindolin-1-one], the “Enzymatic Emax” value was “C (2≥C)”. Under setting [1], the pEC50 is not above 5.30.

For `Cc1cccnc1C[C@@H]1c2ccccc2C(=O)N1Cc1ccc2[nH]c(=O)oc2c1` [Compound 177, (R)-6-((1-((3-methylpyridin-2-yl)methyl)-3-oxoisoindolin-2-yl)methyl)benzo[d]oxazol-2(3H)-one], the “Enzymatic Emax” value is listed as “C (2≥C)”. Besides, under setting [2], the negative-log EC50 (pEC50) is not above 5.30.

Regarding `Cn1ncc(Cl)c1CC1c2ccccc2C(=O)N1Cc1ccc2c(cnn2C)c1` (centres unmarked) [Compound 586, 3-((4-chloro-1-methyl-1H-pyrazol-5-yl)methyl)-2-((1-methyl-1H-indazol-5-yl)methyl)isoindolin-1-one], the “Enzymatic Emax” value is “C (2≥C)”. Also, under setting [1], the negative-log EC50 (pEC50) was not above 5.30.

Take `O=C1c2ccccc2C(Cc2ncccc2Br)N1Cc1ccc2[nH]c(O)nc2c1` (centres unmarked) [Compound 367, 3-((3-bromopyridin-2-yl)methyl)-2-((2-hydroxy-1H-benzo[d]imidazol-5-yl)methyl)isoindolin-1-one]: the “Enzymatic Emax” value was “C (2≥C)”. Further, under setting [1], the pEC50 was not above 5.30.

As for `Cc1ccc(CN2C(=O)c3ccccc3C2Cc2c(Cl)cnn2C)cc1` (centres unmarked) [Compound 503, 3-((4-chloro-1-methyl-1H-pyrazol-5-yl)methyl)-2-(4-methylbenzyl)isoindolin-1-one], the “Enzymatic Emax” value is given as “C (2≥C)”. In addition, under setting [1], the pEC50 is not above 5.30.

Regarding `O=C1c2ccccc2C(Cc2cc(Cl)ccn2)N1Cc1ccc2[nH]c(=O)oc2c1` (centres unmarked) [Compound 220, 6-((1-((4-chloropyridin-2-yl)methyl)-3-oxoisoindolin-2-yl)methyl)benzo[d]oxazol-2(3H)-one], the “Enzymatic Emax” value is “B (3≥B>2)”. Moreover, under setting [2], the pEC50 is 5.30 to 6.30.

For the compound `Cn1c(CC2c3ccccc3C(=O)N2CC2CC3(CNC(=O)O3)C2)ccc(Cl)c1=O` (centres unmarked) [Compound 472, 2-((1-((5-chloro-1-methyl-6-oxo-1,6-dihydropyridin-2-yl)methyl)-3-oxoisoindolin-2-yl)methyl)-5-oxa-7-azaspiro[3.4]octan-6-one], the “Enzymatic Emax” value is given as “C (2≥C)”. In addition, under setting [1], the pEC50 is not above 5.30.

With `CC(=O)c1ccc(CN2C(=O)c3ccccc3C2Cc2c(Cl)cnn2C)cc1` (centres unmarked) [Compound 584, 2-(4-acetylbenzyl)-3-((4-chloro-1-methyl-1H-pyrazol-5-yl)methyl)isoindolin-1-one], the “Enzymatic Emax” value is on record as “B (3≥B>2)”. Besides, under setting [1], the pEC50 was 5.30 to 6.30.

For the compound `Cc1cc(F)c2c(c1)C(Cc1c(Cl)cnn1C)N(CC1CC3(CNC(=O)O3)C1)C2=O` (centres unmarked) [Compound 506, 2-((1-((4-chloro-1-methyl-1H-pyrazol-5-yl)methyl)-4-fluoro-6-methyl-3-oxoisoindolin-2-yl)methyl)-5-oxa-7-azaspiro[3.4]octan-6-one], the “Enzymatic Emax” value is reported as “B (3≥B>2)”. For the same compound, under setting [1], the pEC50 was more than 6.30.

For `N#Cc1nc2cc(CN3C(=O)c4ccccc4C3Cc3ncccc3Br)ccc2[nH]1` (centres unmarked) [Compound 366, 5-((1-((3-bromopyridin-2-yl)methyl)-3-oxoisoindolin-2-yl)methyl)-1H-benzo[d]imidazole-2-carbonitrile], the “Enzymatic Emax” value is “C (2≥C)”. Further, the pEC50 under setting [1] was 5.30 to 6.30.

Regarding `CC1c2cccc(-c3cccnc3)c2C(=O)N1Cc1ccc2[nH]c(=O)oc2c1` (centres unmarked) [Compound 244, 6-((1-methyl-3-oxo-4-(pyridin-3-yl)isoindolin-2-yl)methyl)benzo[d]oxazol-2(3H)-one], the “Enzymatic Emax” value is recorded as “B (3≥B>2)”. The pEC50 under setting [2] is not above 5.30.

Regarding `O=C1c2ccccc2C(Cc2ncccc2Br)N1Cc1ncc(O)cn1` (centres unmarked) [Compound 505, 3-((3-bromopyridin-2-yl)methyl)-2-((5-hydroxypyrimidin-2-yl)methyl)isoindolin-1-one], the “Enzymatic Emax” value is “C (2≥C)”. Moreover, the negative-log EC50 (pEC50) under setting [1] is not above 5.30.

Take `CNC(=O)c1ccc2c(c1)C(C)N(Cc1ccc3[nH]c(=O)oc3c1)C2=O` (centres unmarked) [Compound 92, N,3-dimethyl-1-oxo-2-((2-oxo-2,3-dihydrobenzo[d]oxazol-6-yl)methyl)isoindoline-5-carboxamide]: the “Enzymatic Emax” value was “B (3≥B>2)”. In addition, the pEC50 under setting [2] is not above 5.30.

With `Cn1cnc(CC2c3ccccc3C(=O)N2Cc2ccc3[nH]c(=O)oc3c2)c1Cl` (centres unmarked) [Compound 249, 6-((1-((5-chloro-1-methyl-1H-imidazol-4-yl)methyl)-3-oxoisoindolin-2-yl)methyl)benzo[d]oxazol-2(3H)-one], the “Enzymatic Emax” value is given as “A (A>3)”. For the same compound, the negative-log EC50 (pEC50) under setting [2] was more than 6.30.

Take `CC1c2c(cccc2C2CC2)C(=O)N1Cc1ccc2[nH]c(=O)oc2c1` (centres unmarked) [Compound 245, 6-((4-cyclopropyl-3-methyl-1-oxoisoindolin-2-yl)methyl)benzo[d]oxazol-2(3H)-one]: the “Enzymatic Emax” value is on record as “B (3≥B>2)”. For the same compound, the negative logarithm of the EC50 (pEC50) under setting [2] was not above 5.30.

As for `O=C1c2ccccc2C(Cc2ccc(Cl)cn2)N1Cc1ccc2[nH]c(=O)oc2c1` (centres unmarked) [Compound 196, 6-((1-((5-chloropyridin-2-yl)methyl)-3-oxoisoindolin-2-yl)methyl)benzo[d]oxazol-2(3H)-one], the “Enzymatic Emax” value is reported as “B (3≥B>2)”. For the same compound, the pEC50 under setting [2] is 5.30 to 6.30.

With `Cn1ncc(Cl)c1CC1c2ccccc2C(=O)N1CC1CC2(CN=C(NC#N)O2)C1` (centres unmarked) [Compound 520, N-(2-((1-((4-chloro-1-methyl-1H-pyrazol-5-yl)methyl)-3-oxoisoindolin-2-yl)methyl)-5-oxa-7-azaspiro[3.4]oct-6-en-6-yl)cyanamide], the “Enzymatic Emax” value is listed as “C (2≥C)”. Also, under setting [1], the negative-log EC50 (pEC50) is not above 5.30.
